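How tested: cells in 96-well plates exposed to compound for 48 hours at five concentrations. TGI marks complete inhibition of growth.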
Assays:
Test in all cases: NCI tumour cell line growth inhibition, 48 h
[1] = test system: 786-0 renal
[2] = test system: T-47D breast
[3] = test system: OVCAR-4 ovarian
[4] = test system: UO-31 renal
[5] = test system: HL-60(TB) leukemia
[6] = test system: SF-539 CNS
[7] = test system: SK-MEL-2 melanoma
[8] = test system: NCI/ADR-RES ovarian
[9] = test system: EKVX NSCLC
[10] = test system: MALME-3M melanoma

Row | SMILES | TGI [1] [µM] | TGI [2] [µM] | TGI [3] [µM] | TGI [4] [µM] | TGI [5] [µM] | TGI [6] [µM] | TGI [7] [µM] | TGI [8] [µM] | TGI [9] [µM] | TGI [10] [µM]
1 | Cc1ccc(/C=C/C(=O)Oc2ccc(/C=C3\CCC/C(=C\c4ccc(OC(=O)/C=C/c5ccc(C)cc5)cc4)C3=O)cc2)cc1 | 81 | > 100 | > 100 | > 100 | > 100 | > 100 | > 100 | > 100 | > 100 | 
2 | CCCCCCSc1nc(N)nc2nc[nH]c12 |  |  | > 100 | 68.6 | 60.4 | > 100 | > 100 | > 100 | > 100 | > 100
3 | Cc1cc2c(c(C(=O)NCC(=O)N[C@@H](C)C(=O)OCc3ccccc3)c1)Oc1c(cc(C)cc1C(=O)NCC(=O)N[C@@H](C)C(=O)OCc1ccccc1)S2 | > 100 | 6.28 | > 100 | > 100 |  |  | > 100 | > 100 | > 100 | 44.2
4 | O=C(NC(=S)Nc1ccc([N+](=O)[O-])cc1)c1ccc2c(c1)Sc1ccccc1O2 | > 100 | > 100 |  | > 100 | > 100 | > 100 | > 100 | > 100 |  | > 100
5 | COc1cccc2c1OC1Sc3ccccc3-c3nn(-c4ccccc4)c-2c31 (stereo not drawn) | > 100 |  |  | > 100 | > 100 | > 100 | > 100 |  | > 100 | > 100
6 | O=c1[nH]c(=O)c2ncn(-c3ccc([N+](=O)[O-])cn3)c2[nH]1 | > 100 | > 100 | > 100 | > 100 | > 100 | > 100 | > 100 | > 100 | > 100 | 
7 | CCOC(=O)/C=C/C(=O)O/C=C/[N+](=O)[O-] | > 100 | > 100 |  | > 100 | > 100 | > 100 |  | > 100 | > 100 | 
8 | Cn1c(-c2ccc(-c3cc(-c4cccs4)c(-c4cccs4)n3C)cc2)cc(-c2cccs2)c1-c1cccs1 | > 100 | > 100 | > 100 | > 100 | > 100 | > 100 | > 100 | > 100 | > 100 | 
9 | CCOC(=O)c1[nH]cc(C)c1-c1cccn1-c1ccc(Cl)cc1[N+](=O)[O-] | 36.1 | > 100 | > 100 | 54.9 |  | 43.9 | 39.2 | 52.9 | 88.4 | 
10 | CSc1ncc2c(n1)-c1ccccc1OC2N1CCOCC1 (stereo not drawn) | > 100 | 80.3 | > 100 | > 100 | 83.9 | > 100 | > 100 | > 100 | > 100 | 
11 | CC(C)C(Nc1ncnc2nc[nH]c12)C(=O)O (stereo not drawn) | > 100 | > 100 | > 100 | > 100 | > 100 |  | > 100 | > 100 | > 100 | > 100
12 | COc1ccc2c(c1)Oc1cc(O)ccc1[C@H]2c1ccccc1C(=O)NC(C)c1ccccc1 (stereo partly drawn) | 34.9 |  |  | 25.5 | 44.1 | 29.7 | 82.2 |  | 33.5 | 46.2
13 | CC(C)=CC1C(C(=O)Oc2ccccc2C(C)C)C1(C)C (stereo not drawn) | 42.5 | 50.3 | > 100 | 34.6 | 38.5 |  | 33.1 | > 100 | 36.5 | 34.1
14 | COc1cccc2c1C(=O)c1c(O)c3c(c(O)c1C2=O)C[C@@](O)(C(C)=O)CC3S(=O)(=O)O (stereo partly drawn) | > 100 |  | > 100 | > 100 | > 100 | > 100 | > 100 |  | > 100 | > 100
15 | O=C1C=C(Nc2ccccc2C(=O)CC(=O)C(=O)Nc2ccc(Cl)cc2)c2ccccc2C1=O | 62.1 |  | 37 | 65.6 | > 100 | 50.2 | 34.3 |  | 99 | 24.1
16 | CN1CCN(C(=O)CCC(=O)Nc2cc3c(c4ccccc24)-c2ccc4ccccc4c2C3)CC1 | 3.13 | 3.57 | 3.08 | 3.28 |  | 3.13 | 3.65 | 4.55 | 3.13 | 3.71
17 | O=C1c2ccccc2C(=O)N1n1c(Cc2ccc(Cl)cc2)n[nH]c1=O | > 100 | > 100 | > 100 | > 100 |  | > 100 | > 100 | > 100 | > 100 | > 100
18 | O=C1/C(=C/c2ccc(Cl)cc2)Oc2cc(O)ccc21 | > 100 | > 100 | > 100 | 47.1 | 34.9 | 61.3 |  | 79.3 | 94.3 | 
19 | Cc1cc2cc3cc(C)c(N)cc3nc2cc1N | 1.75 | 2.43 | 1.49 | 10.4 | 11 |  | 10.4 | 9.83 | 1.47 | 2.72
20 | C/C(=N\Nc1nc2cc(Cl)ccc2s1)c1ccccn1 |  | 43.6 | > 100 | 14.8 | 0.586 | > 100 |  |  | > 35.5 | > 25.6
21 | COC(=O)[C@H](CC(C)C)NC(=O)[C@H](Cc1ccccc1)N1CC2C=CC1C2 (stereo partly drawn) | > 100 |  | > 100 | > 100 | > 100 | > 100 | > 100 |  | > 100 | > 100
22 | O=C(Cc1nc2ccc(C(=O)c3ccccc3)cc2[nH]c1=O)C(=O)Nc1nc2ccccc2[nH]1 | > 100 |  | > 100 | > 100 | > 100 | > 100 |  |  | > 100 | > 100
23 | O=c1cc(-c2ccccc2)[nH]c2ncccc12 | > 100 | > 100 | > 100 | > 100 |  |  |  | 0.414 | > 100 | > 100
24 | O[C@@H]1C[C@H](Cl)c2c(Cl)sc(Cl)c21 | > 100 | > 100 | > 100 | > 100 |  | > 100 | > 100 | > 100 | > 100 | > 100
25 | COC1OCC(O)C(NC(=O)N(C)N=O)C1O (stereo not drawn) |  |  | > 100 | > 100 |  | > 100 | > 100 | > 100 | > 100 | > 100
